Columns and labels:
Macaca mulatta = species on record: Macaca mulatta; assay: Percentage recovery in rhesus monkey hepatic microsomal fractions under oxidative conditions after 1 hour; settings: liver microsomes
[1] = Percentage recovery in rat hepatic microsomal fractions under oxidative conditions after 1 hour; format: ADME; settings: liver microsomes, read-out: Recovery

CS(=O)(=O)c1ccc(-c2c(-c3ccccc3)nc3sccn23)cc1
remaining at 1 h (Macaca mulatta): 65% | remaining at 1 h [1]: 75%

Reference: ChEMBL document CHEMBL1151530, “Characterization of the in vitro oxidative metabolites of the COX-2 selective inhibitor L-766,112” (Bioorg Med Chem Lett, 1997)
